Converted amounts (≈) assume the structure as drawn. Where two headings read alike, the source gives them in different places.
Assays:
[1] = tested on: A. baumannii drug resistant clinical isolates; assay: Antibacterial activity (MIC) against drug resistant clinical isolates, alone and with PMBN; assay type: cell-based; conditions: for MIC: Acinetobacter baumannii, read-out: MIC Compound alone
E. cloaceae (ATCC 13047) [2] = conditions: Table 6
E. faecalis (ATCC 29212) = assay: Antibacterial activity (MIC), Gram-positive type strain; assay type: cell-based, Enteroccocus faecalis; conditions: Enterococcus faecalis, ATCC29212; Table 13
E. cloaceae (ATCC 13047) [3] = assay: microbe, parasite or virus in culture; conditions: Enterobacter cloacae, ATCC13047, read-out: MIC Compound alone
[4] = tested on: A. baumannii (ATCC 19606); assay: microbe, parasite or virus in culture; conditions: Acinetobacter baumannii, ATCC19606, read-out: MIC Compound alone
[5] = tested on: H. influenzae (ATCC 49247); assay: Antibacterial activity (MIC), Gram-negative type strain; assay type: cell-based, Haemophilus influenzae; conditions: Haemophilus influenzae, ATCC49247; Table 13
[6] = tested on: N. gonorrheae (ATCC 49226); assay: as above; assay type: cell-based, Neisseria gonorrhoeae; conditions: Neisseria gonorrhoeae, ATCC49226; Table 13
S. aureus (ATCC 29213) = assay: Antibacterial activity (MIC), Gram-positive type strain; assay type: cell-based, Staphylococcus aureus; conditions: Staphylococcus aureus, ATCC29213; Table 13
[7] = tested on: A. baumannii (ATCC 19606); conditions: Table 4
[8] = tested on: P. aeruginosa drug resistant clinical isolates; assay: Antibacterial activity (MIC) against drug resistant clinical isolates, alone and with PMBN; assay type: cell-based; conditions: for MIC: Pseudomonas aeruginosa, read-out: MIC Compound alone

In the case of `CCNC(=O)Nc1nc2cc(-c3cnc(NS(=O)(=O)C(C)(C)C)nc3)cc(-c3ccc(C)cn3)c2s1` [Compound A-13, 1-[5-[2-(tert-Butylsulfonylamino)pyrimidin-5-yl]-7-(5-methyl-2-pyridyl)-1,3-benzothiazol-2-yl]-3-ethyl-urea], the “MIC of Compound (μg/ml) in the presence of PMBN (128 μg/ml)” value (“MIC of Compound (μg/ml) … (128 μg/ml)” for short) ([1]; A. baumannii (MMX 2585)) is reported as 0.12 µg/mL, the “MIC of Compound (μg/ml) … (128 μg/ml)” value ([1]; A. baumannii (MMX 2598)) is reported as 0.06 µg/mL and the “MIC of Compound (μg/ml) … (128 μg/ml)” value ([1]; A. baumannii (MMX 2600)) is reported as 0.06 µg/mL. For the same compound, the “MIC of Compound (μg/ml) … (128 μg/ml)” value ([1]; A. baumannii (MMX 4405)) was 0.12 µg/mL, the “MIC of Compound (μg/ml) … (128 μg/ml)” value ([1]; A. baumannii (MMX 4454)) was 0.12 µg/mL and the “MIC of Compound (μg/ml) … (128 μg/ml)” value ([1]; A. baumannii (MMX 6331)) was 0.06 µg/mL. The “MIC of Compound (μg/ml) … (128 μg/ml)” value ([1]; A. baumannii (NCTC13301)) was 0.12 µg/mL, the “MIC of Compound (μg/ml) … (128 μg/ml)” value ([1]; A. baumannii (NCTC13302)) was 0.03 µg/mL and the “MIC of Compound (μg/ml) … (128 μg/ml)” value ([1]; A. baumannii (NCTC13303)) was 0.06 µg/mL. The “MIC of Compound (μg/ml) … (128 μg/ml)” value ([1]; A. baumannii (NCTC13304)) was 0.03 µg/mL, the “MIC of Compound (μg/ml) … (128 μg/ml)” value ([1]; A. baumannii (NCTC13305)) was 0.12 µg/mL and the “MIC of Compound (μg/ml) … (128 μg/ml)” value ([1]; A. baumannii (NCTC 13420)) was 0.03 µg/mL. The “MIC of Compound (μg/ml) … (128 μg/ml)” value ([1]; A. baumannii (NCTC13421)) was 0.03 µg/mL, the “MIC of Compound (μg/ml) … (128 μg/ml)” value ([1]; A. baumannii (NCTC13422)) was 0.03 µg/mL and the “MIC of Compound (μg/ml) … (128 μg/ml)” value ([1]; A. baumannii (NCTC13424)) was 0.03 µg/mL. The MIC ([1]; A. baumannii (MMX 2585)) was 4 µg/mL (≈ 7.61 µM), the MIC ([1]; A. baumannii (MMX 2598)) was 2 µg/mL (≈ 3.8 µM) and the MIC ([1]; A. baumannii (MMX 2600)) was 2 µg/mL (≈ 3.8 µM). The MIC ([1]; A. baumannii (MMX 4405)) was 4 µg/mL (≈ 7.61 µM), the MIC ([1]; A. baumannii (MMX 4454)) was 1 µg/mL (≈ 1.9 µM) and the MIC ([1]; A. baumannii (MMX 6331)) was 4 µg/mL (≈ 7.61 µM). For the same compound, the MIC ([1]; NCTC13301, A. baumannii (NCTC13301)) was 4 µg/mL (≈ 7.61 µM), the MIC ([1]; NCTC13302, A. baumannii (NCTC13302)) was 1 µg/mL (≈ 1.9 µM) and the MIC ([1]; NCTC13303, A. baumannii (NCTC13303)) was 2 µg/mL (≈ 3.8 µM). It also gave an MIC ([1]; NCTC13304, A. baumannii (NCTC13304)) of 1 µg/mL (≈ 1.9 µM), an MIC ([1]; NCTC13305, A. baumannii (NCTC13305)) of 2 µg/mL (≈ 3.8 µM) and an MIC ([1]; NCTC13420, A. baumannii (NCTC 13420)) of 1 µg/mL (≈ 1.9 µM). For the same compound, the MIC ([1]; NCTC13421, A. baumannii (NCTC13421)) was 2 µg/mL (≈ 3.8 µM), the MIC ([1]; NCTC13422, A. baumannii (NCTC13422)) was 4 µg/mL (≈ 7.61 µM) and the MIC ([1]; NCTC13424, A. baumannii (NCTC13424)) was 1 µg/mL (≈ 1.9 µM). The “MIC of Compound (μg/ml) … (128 μg/ml)” value (E. cloaceae (ATCC 13047) [2]) was 0.25 µg/mL, the MIC (E. faecalis (ATCC 29212)) was ≤ 0.008 µg/mL and the “MIC of Compound (μg/ml) … (128 μg/ml)” value (E. coli (ATCC 25922); Table 1, (b) No effect) was 0.008 µg/mL. For the same compound, the “MIC of Compound (μg/ml) in the presence of Colistin (1 μg/ml)” value (E. coli (ATCC 25922); Table 2, colistin sub-inhibitory) was 0.25 µg/mL, the “MIC of Compound (μg/ml) in the presence of PMB (0.5 μg/ml)” value (E. coli (ATCC 25922); Table 3, PMB sub-inhibitory) was 0.12 µg/mL and the MIC (E. cloaceae (ATCC 13047) [3]) was > 64 µg/mL. The MIC [4] was 1 µg/mL (≈ 1.9 µM), the MIC [5] was 0.015 µg/mL (≈ 0.0285 µM) and the MIC [6] was ≤ 0.008 µg/mL. The MIC (S. aureus (ATCC 29213)) was ≤ 0.008 µg/mL, the “MIC of Compound (μg/ml) … (128 μg/ml)” value [7] was 0.03 µg/mL and the “MIC of Compound (μg/ml) … (128 μg/ml)” value ([8]; P. aeruginosa (MMX3007)) was 0.03 µg/mL. For the same compound, the “MIC of Compound (μg/ml) … (128 μg/ml)” value ([8]; P. aeruginosa (MMX3022)) was 0.03 µg/mL, the “MIC of Compound (μg/ml) … (128 μg/ml)” value ([8]; P. aeruginosa (MMX3025)) was 0.03 µg/mL and the “MIC of Compound (μg/ml) … (128 μg/ml)” value ([8]; P. aeruginosa (MMX3026)) was “≦0.008 μg/ml”. The “MIC of Compound (μg/ml) … (128 μg/ml)” value ([8]; P. aeruginosa (MMX4700)) was 0.12 µg/mL, the “MIC of Compound (μg/ml) … (128 μg/ml)” value ([8]; P. aeruginosa (NCTC13437)) was 0.016 µg/mL and the MIC ([8]; NCTC13437, P. aeruginosa (NCTC13437)) was 16 µg/mL (≈ 30.4 µM). For the same compound, the MIC ([8]; P. aeruginosa (MMX3007)) was > 16 µg/mL and the MIC ([8]; P. aeruginosa (MMX3022)) was 8 µg/mL (≈ 15.2 µM).

— patent US20170007615A1, “Antibacterial Compounds” (priority 2014, published 2017)
